Results as given in patent publication US6339045B1, “N-(unsubstituted or substituted)-4-substituted-6-(unsubstituted or substituted)phenoxy-2-pyridinecarboxamides or thiocarboxamides, processes for producing the same, and herbicides” (Kureha Kagaku Kogyo Kabushiki Kaisha, priority 1995, dated 2002).

Columns and labels:
Assay in all cases: Herbicidal effect by foliage and soil treatment
Format in all cases: in vivo
Conditions in all cases: 10 g ai/10a, evaluated after 14 days
[1] = tested on: redroot pigweed (Amaranthus retroflexus)
How it was run: (§1)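 Potted seedlings at cotyledon-to-bifoliate stage were sprayed with compound in Tween 20/water at a predetermined rate and grown in a greenhouse at 19 to 25° C. Growth was rated against untreated plants after 14 days.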

[2] = tested on: common chickweed (Stellaria media)
How it was run: as §1

[3] = tested on: cleavers (Galium aparine)
How it was run: as §1

[4] = tested on: kediock (Sinapis arvensis)
How it was run: as §1

[5] = tested on: sicklepod (Cassia obtusifolia)
How it was run: as §1

[6] = tested on: field bindweed (Convolvulus arvensis)
How it was run: as §1

[7] = tested on: velvetleaf (Abutilon theophrasti)
How it was run: as §1

[8] = tested on: common blackjack (Bidens pilosa)
How it was run: as §1

[9] = tested on: ivyleafspeedwell (Veronica hederaefolia)
How it was run: as §1

[10] = tested on: wild chamomile (Matricaria chamomilla)
How it was run: as §1

[11] = tested on: black nightshade (Solanum nigrum)
How it was run: as §1

| Compound | herbicidal activity rating, AR (Amaranthus retroflexus) [1] | herbicidal activity rating, SM (Stellaria media) [2] | herbicidal activity rating, GA (Galium aparine) [3] | herbicidal activity rating, SA (Sinapis arvensis) [4] | herbicidal activity rating, CO (Cassia obtusifolia) [5] | herbicidal activity rating, CA (Convolvulus arvensis) [6] | herbicidal activity rating, AT (Abutilon theophrasti) [7] | herbicidal activity rating, BP (Bidens pilosa) [8] | herbicidal activity rating, VH (Veronica hederaefolia) [9] | herbicidal activity rating, MC (Matricaria chamomilla) [10] | herbicidal activity rating, SN (Solanum nigrum) [11] |
| --- | --- | --- | --- | --- | --- | --- | --- | --- | --- | --- | --- |
| COc1cc(Oc2cccc(C(F)(F)F)c2)nc(C(=O)NC2CCCC2)c1 [Compound I-50] | 5 (percentage of weeds killed was not less than 80%) | 5 (percentage of weeds killed was not less than 80%) | 5 (percentage of weeds killed was not less than 80%) | 5 (percentage of weeds killed was not less than 80%) | 4 (percentage of weeds killed was not less than 60% and less than 80%) | 5 (percentage of weeds killed was not less than 80%) | 4 (percentage of weeds killed was not less than 60% and less than 80%) | 5 (percentage of weeds killed was not less than 80%) | 5 (percentage of weeds killed was not less than 80%) | 5 (percentage of weeds killed was not less than 80%) | 5 (percentage of weeds killed was not less than 80%) |
| CCNC(=O)c1cc(OC)cc(Oc2cccc(C(F)(F)F)c2)n1 [Compound I-51] | 5 (percentage of weeds killed was not less than 80%) | 5 (percentage of weeds killed was not less than 80%) | 5 (percentage of weeds killed was not less than 80%) | 5 (percentage of weeds killed was not less than 80%) | 5 (percentage of weeds killed was not less than 80%) | 4 (percentage of weeds killed was not less than 60% and less than 80%) | 5 (percentage of weeds killed was not less than 80%) | 3 (percentage of weeds killed was not less than 40% and less than 60%) | 5 (percentage of weeds killed was not less than 80%) | 4 (percentage of weeds killed was not less than 60% and less than 80%) | 5 (percentage of weeds killed was not less than 80%) |
| CCCCCNC(=O)c1cc(OC)cc(Oc2cccc(C(F)(F)F)c2)n1 [Compound I-52] | 5 (percentage of weeds killed was not less than 80%) | 5 (percentage of weeds killed was not less than 80%) | 5 (percentage of weeds killed was not less than 80%) | 5 (percentage of weeds killed was not less than 80%) | 4 (percentage of weeds killed was not less than 60% and less than 80%) | 5 (percentage of weeds killed was not less than 80%) | 4 (percentage of weeds killed was not less than 60% and less than 80%) | 3 (percentage of weeds killed was not less than 40% and less than 60%) | 5 (percentage of weeds killed was not less than 80%) | 3 (percentage of weeds killed was not less than 40% and less than 60%) | 5 (percentage of weeds killed was not less than 80%) |
| CSc1cc(Oc2cccc(C(F)(F)F)c2)nc(C(=O)NC(C)C)c1 [Compound I-55, N-(i-propyl)-4-methylmercapto-6-{3-(trifluoromethyl)phenoxy}-2-pyridine carboxamide] | 5 (percentage of weeds killed was not less than 80%) | 4 (percentage of weeds killed was not less than 60% and less than 80%) | 5 (percentage of weeds killed was not less than 80%) | 4 (percentage of weeds killed was not less than 60% and less than 80%) | 5 (percentage of weeds killed was not less than 80%) | 4 (percentage of weeds killed was not less than 60% and less than 80%) | 4 (percentage of weeds killed was not less than 60% and less than 80%) | 4 (percentage of weeds killed was not less than 60% and less than 80%) | 5 (percentage of weeds killed was not less than 80%) | 3 (percentage of weeds killed was not less than 40% and less than 60%) | 5 (percentage of weeds killed was not less than 80%) |
| CNc1cc(Oc2cccc(C(F)(F)F)c2)nc(C(=O)NC(C)C)c1 [Compound I-56, N-(i-propyl)-4-methylamino-6-{3-(trifluoromethyl)phenoxy}-2-pyridine carboxamide] | 5 (percentage of weeds killed was not less than 80%) | 4 (percentage of weeds killed was not less than 60% and less than 80%) | 5 (percentage of weeds killed was not less than 80%) | 5 (percentage of weeds killed was not less than 80%) | 4 (percentage of weeds killed was not less than 60% and less than 80%) | 5 (percentage of weeds killed was not less than 80%) | 5 (percentage of weeds killed was not less than 80%) | 4 (percentage of weeds killed was not less than 60% and less than 80%) | 5 (percentage of weeds killed was not less than 80%) | 4 (percentage of weeds killed was not less than 60% and less than 80%) | 5 (percentage of weeds killed was not less than 80%) |
| CC(C)NC(=O)c1cc(N(C)C)cc(Oc2cccc(C(F)(F)F)c2)n1 [Compound I-57, N-(i-propyl)-4-dimethylamino-6-{3-(trifluoromethyl)phenoxy}-2-pyridine carboxamide] | 5 (percentage of weeds killed was not less than 80%) | 4 (percentage of weeds killed was not less than 60% and less than 80%) | 5 (percentage of weeds killed was not less than 80%) | 5 (percentage of weeds killed was not less than 80%) | 5 (percentage of weeds killed was not less than 80%) | 4 (percentage of weeds killed was not less than 60% and less than 80%) | 4 (percentage of weeds killed was not less than 60% and less than 80%) | 5 (percentage of weeds killed was not less than 80%) | 5 (percentage of weeds killed was not less than 80%) | 3 (percentage of weeds killed was not less than 40% and less than 60%) | 5 (percentage of weeds killed was not less than 80%) |
| CC(C)NC(=O)c1cc(N(C)Cc2ccccc2)cc(Oc2cccc(C(F)(F)F)c2)n1 [Compound I-58, N-(i-propyl)-4-{methyl(phenylmethyl)amino}-6-{3-(trifluoromethyl)phenoxy}-2-pyridine carboxamide] | 5 (percentage of weeds killed was not less than 80%) | 4 (percentage of weeds killed was not less than 60% and less than 80%) | 5 (percentage of weeds killed was not less than 80%) | 5 (percentage of weeds killed was not less than 80%) | 5 (percentage of weeds killed was not less than 80%) | 5 (percentage of weeds killed was not less than 80%) | 4 (percentage of weeds killed was not less than 60% and less than 80%) | 2 (percentage of weeds killed was not less than 20% and less than 40%) | 5 (percentage of weeds killed was not less than 80%) | 3 (percentage of weeds killed was not less than 40% and less than 60%) | 5 (percentage of weeds killed was not less than 80%) |
| CCOc1cc(Oc2cccc(C(F)(F)F)c2)nc(C(=O)NC(C)C)c1 [Compound I-59] | 5 (percentage of weeds killed was not less than 80%) | 5 (percentage of weeds killed was not less than 80%) | 5 (percentage of weeds killed was not less than 80%) | 5 (percentage of weeds killed was not less than 80%) | 5 (percentage of weeds killed was not less than 80%) | 4 (percentage of weeds killed was not less than 60% and less than 80%) | 4 (percentage of weeds killed was not less than 60% and less than 80%) | 3 (percentage of weeds killed was not less than 40% and less than 60%) | 5 (percentage of weeds killed was not less than 80%) | 4 (percentage of weeds killed was not less than 60% and less than 80%) | 5 (percentage of weeds killed was not less than 80%) |
